Test results from patent US20230372290A1, “FORMULATIONS COMPRISING BOTANICAL EXTRACTS” (APEX BIOTECH RESEARCH PTY LTD, priority 2020, published 2023).
Where two headings read alike, the source gives them in different places.

Columns and labels:
[1] = target: M^pro (Severe acute respiratory syndrome coronavirus 2, UniProt P0DTD1); experiment: Initial in silico and enzymology studies targeting M^pro
[2] = test system: ACE2 mRNA; format: cell-based, African green monkey (Chlorocebus sp)
[3] = test system: SARS-CoV-2 (Vic 01); experiment: microbe, parasite or virus in culture; format: cell-based; conditions: for Microscopy at day 3: Vero cells, 1000 TCID50 SARS-CoV-2, cytopathic effect (CPE)
[4] = test system: ACE2 protein; experiment: ACE2 protein by ELISA in cell lysate of CACO-2 cells; format: cell-based, human; conditions: 72 hours, 1 μM daily for three days, compared to UP-P, FIG. 3
Description: FIG. 3 illustrates the expression of ACE2 protein by ELISA in cell lysate of CACO-2 cells 72 hours following treatment with andrographolide (UP-A) and piceid (UP-P) (1 μM) daily for three days.
For ACE2 protein measurements, Caco-2 cells were scraped from each well in ice-cold RIPA buffer for ELISA assays. To determine the quantity of ACE2 in Caco-2 cells an Angiotensin Converting Enzyme 2 (ACE2) ELISA Kit (CusaBio, Wuhan, Hubei, China, catalogue number: CSB-E17204m) was performed on samples as per the manufacturers protocol. Briefly, each of the samples was loaded with Sample Diluent in duplicate wells. A standard curve was prepared from a Standard solution provided. 0, 6.25, 12.5, 25, 50, 100, 200 and 400 μg/mL of the standard was added to a series of wells in duplicate. The final volume of each standard well was made up to […] with the addition of Sample Diluent. […] of provided Biotin-antibody (1×) was added to each well and then after washing steps, […] of HRP-avidin antibody (1×). The plate was put on shake mode on a CLARIOstarPlus Multi-Mode Microplate Reader (BMG Labtech, Ortenberg, Germany) to ensure proper mixing before being scanned at Ex/Em=570/540 nm in an end point mode.

| SMILES | ACE2 mRNA expression ([2]; Vero (AGM) cells, 48 h, FIG. 1) | Microscopy at day 3 ([3]; drug conc. 0.078125 μM) | Microscopy at day 3 ([3]; drug conc. 0.15625 μM) | Microscopy at day 3 ([3]; drug conc. 0.3125 μM) | Microscopy at day 3 ([3]; drug conc. 0.625 μM) | Microscopy at day 3 ([3]; drug conc. 1.25 μM) | Microscopy at day 3 ([3]; drug conc. 2.5 μM) | Microscopy at day 3 ([3]; drug conc. 5 μM) | Microscopy at day 3 ([3]; drug conc. 10 μM) | Microscopy at day 3 ([3]; drug conc. 20 μM) | Microscopy at day 3 ([3]; drug conc. 40 μM) | other results |
| --- | --- | --- | --- | --- | --- | --- | --- | --- | --- | --- | --- | --- |
| OCC1O[C@@H](Oc2cc(O)cc(/C=C/c3ccc(O)cc3)c2)C(O)C(O)[C@@H]1O (stereo partly drawn) [Piceid, 2-[3-Hydroxy-5-[(E)-2-(4-hydroxyphenyl)ethenyl]phenoxy]-6-(hydroxymethyl)oxane-3,4,5-triol] | no discernible effect | CPE | CPE | CPE | CPE | CPE | CPE | CPE | CPE | CPE | CPE | candidate targeting M^pro [1]: promising candidate |
| C[C@H]1[C@H](C)CC[C@]2(C(=O)O)CC[C@]3(C)C(=CC[C@@H]4[C@@]5(C)CC[C@H](O)C(C)(C)[C@@H]5CC[C@]43C)[C@H]12 [Ursolic acid, (1S,2R,4aS,6aR,6aS,6bR,8aR,10S,12aR,14bS)-10-Hydroxy-1,2,6a,6b,9,9,12a-heptamethyl-2,3,4,5,6,6a,7,8,8a,10,11,12,13,14b-tetradecahydro-1H-picene-4a-carboxylic acid] | – | CPE | CPE | CPE | CPE | CPE | CPE | CPE | CPE | CPE | Toxicity | ACE2 mRNA expression [2]: decreased ACE2 mRNA expression to a lesser extent in a dose dependent manner |
| C=C1CCC2[C@@](C)(CC[C@@H](O)[C@@]2(C)CO)C1C/C=C1/C(=O)OCC1O (stereo partly drawn) [Andrographis, 3-[2-[Decahydro-6-hydroxy-5-(hydroxymethyl)-5,8a-dimethyl-2-methylene-1-napthalenyl]ethylidene]dihydro-4-hydroxy-2(3H)-furanone] | significantly decreased | CPE | CPE | CPE | CPE | CPE | CPE | CPE | CPE | CPE | Toxicity | time of maximal effect on ACE2 mRNA expression ([2]; FIG. 2, decreasing at 48 hours and diminishing at 72 hours): 24 h; concentration below which loss of efficacy is observed (ACE2 mRNA) ([2]; FIG. 2 dose response): below 0.5 μM; concentration achieving the maximal response (ACE2 mRNA) ([2]; FIG. 2 dose response, no substantial increase in activity at higher doses): 1 µM; ACE2 mRNA expression ([2]; Vero (AGM) cells, 24 hours, FIG. 2): decreasing ACE2 mRNA expression; dose with the greatest effect on ACE2 mRNA expression ([2]; Vero (AGM) cells, 48 h, FIG. 1, lowest dose): 1 µM; ACE2 protein levels by ELISA [4]: decreased; IC50 ([3]; Severe acute respiratory syndrome coronavirus 2, Vero, 72 h, read-out: IC50 calculated from virus titration (TCID50 data)): 3.25 µM; antiviral activity against SARS-CoV-2 ([3]; alone and in combination with piceid and ursolic acid): showed antiviral activity |
